# Data from patent US10472341B2, “Bicyclic tetrahydrothiazepine derivatives useful for the treatment of neoplastic and/or infectious diseases” (APEIRON BIOLOGICS AG, priority 2015, dated 2019).
# Where “and” joins values, the source holds several entries; their conditions need not be identical. Equal values may be shown once. Where a name gives a salt, the structure may show the parent alone. Read-outs that look alike come from different tables or passages of the source.
# Columns and labels:
# [1] = system: CD4 T cells; experiment: CD69 expression on aCD3/aCD28 stimulated isolated human CD4 T cells (flow cytometry); type: cell-based; conditions: 24 h after TCR stimulation, read-out: Activity Class CD69 (CD4)
# Experimental: (§1) Isolated T cells were plated in Xvivo medium at 1.5*10 ^5 cells per in 96 well culture plates and TCR-stimulated with anti-CD3/28 mAbs in the presence of compound as indicated. Cytokine production was determined at 24 h or 48 h following TCR stimulation in cell culture supernatants using commercially available ELISA kits (BD and eBioscience) as recommended by the manufacturer. T cell proliferation and CD25 expression (CD25-PC5 reagent purchased from Beckman Coulter) was determined by flow cytometry (Beckman-Coulter FC500) and analysed with Kaluza Software. For measurement of CD69 expression, isolated CD4 and CD8 T cells were plated in Xvivo medium at […] per in 96 well culture plates and TCR-stimulated with anti-CD3/28 mAbs in the presence of compound. CD69 expression was determined at 24 h following TCR stimulation by flow cytometry (CD4eF450, CD8APCeF780 and CD69-PC7 reagent purchased from eBioscience) and analysed with Kaluza Software.
# (§2) For measurement of CD69 expression, isolated CD4 and CD8 T cells were plated in Xvivo medium at 80000 cells per in 96 well culture plates and TCR-stimulated with anti-CD3/28 mAbs in the presence of compound. CD69 expression was determined at 24 h following TCR stimulation by flow cytometry (CD4eF450, CD8APCeF780 and CD69-PC7 reagent purchased from eBioscience) and analysed with Kaluza Software.
# [2] = system: CD8 T cells; experiment: CD69 expression on aCD3/aCD28 stimulated isolated human CD8 T cells (flow cytometry); type: cell-based; conditions: T-cell, 24 h after TCR stimulation, read-out: Activity Class CD69 (CD8)
# Experimental: as §1, §2
# [3] = system: aCD3/aCD28-stimulated human PBMCs; experiment: Cytokine production in aCD3/aCD28 stimulated human PBMCs; type: cell-based; conditions: PBMC, 18 h
# Summary of the method: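 Ficoll-isolated human PBMCs at 1e6 cells/mL in X-Vivo15, stimulated with soluble anti-CD3/CD28 (OKT3 and 28.2, 1 μg/mL each) plus compound for 18 h at 37° C. Supernatant cytokines quantified by MSD or HTRF.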
# [4] = system: CD8 T cells & M21 tumor cells; experiment: CD8 T cells from M21-prestimulated PBMCs restimulated with M21 tumor cells, with or without PD-1 blockade; type: cell-based, human; conditions: for Average Granzyme B / Average IFN-g / Average IL-2 / Average Number of living M21 tumor cells: no cpd
# Experimental: For experiments investigating effects of PD-1 blockade, PBMCs were preincubated with 1 h UV-irradiated M21 tumor cells (50000 tumor cells per 1 Mill. PBMCs) for 14 days. […] Compounds and anti-PD-1 antibody (Nivolumab) or control antibody without direct effects on CD8 T cells (Ipilimumab) were added where indicated.
# […] Example 107, no antibody (no Ig), anti-PD-1 antibody (Nivolumab) or control antibody without direct effects on CD8 T cells (Ipilimumab) were included where indicated.
# [5] = enhancement of IFN-γ production, read-out: Activity Class IFN-γ
# [6] = enhancement of IL-2 production, read-out: Activity Class IL-2
Molecule,EC50 [1] [nM],EC50 [2] [nM],"EC50 [3, 5] [nM]","EC50 [3, 6] [nM]",further results
"Cl.N[C@H]1CS(=O)(=O)c2cc(F)c(C(=O)N[C@@H]3CC3(F)F)cc2N(Cc2ccc(Cl)cc2)C1=O (single isomer, unassigned) [Example 106, hydrochloride]",1580 to 5010,1580 to 5010,1580 to 5010,1580 to 5010,
"Cl.N[C@H]1CS(=O)(=O)c2cc(F)c(C(=O)N[C@H]3CC3(F)F)cc2N(Cc2ccc(Cl)cc2)C1=O (single isomer, unassigned) [Example 107, hydrochloride]",< 1580,< 1580,< 1580,< 1580,
"N[C@H]1C[S@+]([O-])c2cc(F)c(C(=O)NCCCC(F)(F)F)cc2N(Cc2ccc(Cl)cc2)C1=O (single isomer, unassigned) [Example 122, hydrochloride]",1580 to 5010,1580 to 5010,< 1580,1580 to 5010,
"N[C@H]1C[S@@+]([O-])c2cc(F)c(C(=O)NCCCC(F)(F)F)cc2N(Cc2ccc(Cl)cc2)C1=O (single isomer, unassigned) [Example 123, hydrochloride]",> 5010,> 5010,< 1580,1580 to 5010,
"N#Cc1ccc(CN2C(=O)[C@@H](N)CS(=O)(=O)c3cc(F)c(C(=O)NC4CC4(F)F)cc32)cc1 (stereo partly drawn) [Example 124, (3R)-3-amino-5-[(4-cyanophenyl)methyl]-N-(2,2-difluorocyclopropyl)-8-fluoro-1,1,4-trioxo-2,3,4,5-tetrahydro-1λ^6,5-benzothiazepine-7-carboxamide hydrochloride]",> 5010,> 5010,1580 to 5010,> 5010,
"N#Cc1ccc(CN2C(=O)[C@@H](N)CS(=O)(=O)c3cc(F)c(C(=O)NCCCC(F)(F)F)cc32)cc1 [Example 125, (3R)-3-amino-5-[(4-cyanophenyl)methyl]-8-fluoro-1,1,4-trioxo-N-(4,4,4-trifluorobutyl)-2,3,4,5-tetrahydro-1λ^6,5-benzothiazepine-7-carboxamide hydrochloride]",1580 to 5010,1580 to 5010,< 1580,1580 to 5010,
"N[C@H]1CS(=O)(=O)c2cc(F)c(C(=O)NC3CCC(F)(F)CC3)cc2N(Cc2ccc(Cl)cc2)C1=O [Example 126, (3R)-3-amino-5-[(4-chlorophenyl)methyl]-N-(4,4-difluorocyclohexyl)-8-fluoro-1,1,4-trioxo-2,3,4,5-tetrahydro-1λ^6,5-benzothiazepine-7-carboxamide hydrochloride]",< 1580,< 1580,< 1580,< 1580,
"N[C@H]1CS(=O)(=O)c2cc(F)c(C(=O)NC3CC3C(F)(F)F)cc2N(Cc2ccc(Cl)cc2)C1=O (stereo partly drawn) [Example 127, (3R)-3-amino-5-[(4-chlorophenyl)methyl]-8-fluoro-1,1,4-trioxo-N-[2-(trifluoromethyl)cyclopropyl]-2,3,4,5-tetrahydro-1λ^6,5-benzothiazepine-7-carboxamide hydrochloride]",< 1580,< 1580,< 1580,1580 to 5010,
"N[C@H]1CSc2cc(F)c(C(=O)NC3CC(F)(F)C3)cc2N(Cc2ccc(Cl)cc2)C1=O [Example 128, (3R)-3-amino-5-[(4-chlorophenyl)methyl]-N-(3,3-difluorocyclobutyl)-8-fluoro-4-oxo-2,3,4,5-tetrahydro-1,5-benzothiazepine-7-carboxamide hydrochloride]",> 5010,1580 to 5010,1580 to 5010,1580 to 5010,
"N[C@H]1CS(=O)(=O)c2cc(F)c(C(=O)NCCCC(F)(F)F)cc2N(Cc2ccc(F)cc2)C1=O [Example 129, (3R)-3-amino-8-fluoro-5-[(4-fluorophenyl)methyl]-1,1,4-trioxo-N-(4,4,4-trifluorobutyl)-2,3,4,5-tetrahydro-1λ^6,5-benzothiazepine-7-carboxamide hydrochloride]",< 1580,< 1580,< 1580,1580 to 5010,
"N[C@H]1CS(=O)(=O)c2cc(F)c(C(=O)NC3CC3(F)F)cc2N(Cc2ccc(F)cc2)C1=O (stereo partly drawn) [Example 130, (3R)-3-amino-N-(2,2-difluorocyclopropyl)-8-fluoro-5-[(4-fluorophenyl)methyl]-1,1,4-trioxo-2,3,4,5-tetrahydro-1λ^6,5-benzothiazepine-7-carboxamide hydrochloride]",> 5010,1580 to 5010,1580 to 5010,> 5010,
"CCCCNC(=O)c1cc2c(cc1F)SC[C@H](N)C(=O)N2Cc1ccc(F)cc1 [Example 131, (3R)-3-amino-N-butyl-8-fluoro-5-[(4-fluorophenyl)methyl]-4-oxo-2,3,4,5-tetrahydro-1,5-benzothiazepine-7-carboxamide hydrochloride]",> 5010,> 5010,1580 to 5010,> 5010,
"N[C@H]1CSc2cc(F)c(C(=O)NCc3ccccc3)cc2N(Cc2ccc(F)cc2)C1=O [Example 132, (3R)-3-amino-N-benzyl-8-fluoro-5-[(4-fluorophenyl)methyl]-4-oxo-2,3,4,5-tetrahydro-1,5-benzothiazepine-7-carboxamide hydrochloride]",> 5010,> 5010,1580 to 5010,> 5010,
"CCCCNC(=O)c1cc2c(cc1F)S(=O)(=O)C[C@H](N)C(=O)N2Cc1ccc(F)cc1 [Example 133, (3R)-3-amino-N-butyl-8-fluoro-5-[(4-fluorophenyl)methyl]-1,1,4-trioxo-2,3,4,5-tetrahydro-1λ^6,5-benzothiazepine-7-carboxamide hydrochloride]",< 1580,< 1580,< 1580,1580 to 5010,
"N[C@H]1CS(=O)(=O)c2cc(F)c(C(=O)NCc3ccccc3)cc2N(Cc2ccc(F)cc2)C1=O [Example 134, (3R)-3-amino-N-benzyl-8-fluoro-5-[(4-fluorophenyl)methyl]-1,1,4-trioxo-2,3,4,5-tetrahydro-1λ^6,5-benzothiazepine-7-carboxamide hydrochloride]",< 1580,< 1580,< 1580,< 1580,
"N[C@H]1CS(=O)(=O)c2cc(F)c(C(=O)NCCC3CCOCC3)cc2N(Cc2ccc(Cl)cc2)C1=O [Example 135, (3R)-3-amino-5-[(4-chlorophenyl)methyl]-8-fluoro-N-[2-(oxan-4-yl)ethyl]-1,1,4-trioxo-2,3,4,5-tetrahydro-1λ^6,5-benzothiazepine-7-carboxamide hydrochloride]",1580 to 5010,1580 to 5010,< 1580,1580 to 5010,
"N[C@H]1CS(=O)(=O)c2cc(F)c(C(=O)NCCCC(F)(F)F)cc2N(Cc2ccccc2)C1=O [Example 136, (3R)-3-amino-5-benzyl-8-fluoro-1,1,4-trioxo-N-(4,4,4-trifluorobutyl)-2,3,4,5-tetrahydro-1λ^6,5-benzothiazepine-7-carboxamide hydrochloride]",< 1580,< 1580,< 1580,< 1580,
"COc1ccc(CNC(=O)c2cc3c(cc2F)S(=O)(=O)C[C@H](N)C(=O)N3Cc2ccc(Cl)cc2)cc1 [Example 137, (3R)-3-amino-5-[(4-chlorophenyl)methyl]-8-fluoro-N-[(4-methoxyphenyl)methyl]-1,1,4-trioxo-2,3,4,5-tetrahydro-1λ^6,5-benzothiazepine-7-carboxamide hydrochloride]",< 1580,< 1580,< 1580,< 1580,
Ipilimumab,,,,,Average Granzyme B ([4]; Ipilimumab alone): 0.612 ng/mL; Average IFN-g ([4]; Ipilimumab alone): 0.000 ng/mL; Average IL-2 ([4]; Ipilimumab alone): 0.024 ng/mL; Average Number of living M21 tumor cells ([4]; Ipilimumab alone): 22648 and 25130; synergistic enhancement of cytokine production with example 107 ([4]; control antibody not targeting CD8 T cells): No such effects were observed
Nivolumab,,,,,"reduction in viable tumor cells ([4]; Nivolumab alone): not able to cause a significant reduction in viable tumor cells; Average Granzyme B ([4]; Nivolumab alone): 1.758 ng/mL; Average IFN-g ([4]; Nivolumab alone): 0.014 ng/mL; Average IL-2 ([4]; Nivolumab alone): 0.046 ng/mL; Average Number of living M21 tumor cells ([4]; Nivolumab alone): 20344 and 22655; cytokine secretion ([4]; PD-1 blockade alone, CD8 T cells & M21 (expresses PD-L1)): also enhanced cytokine secretion"
